Assay results from paper PMC10791743, “Selective CK1α degraders exert antiproliferative activity against a broad range of human cancer cell lines” (Nature Communications, 2024).

What was measured:
Assay in all cases: cells
Design in all cases: Oncolines panel cell viability, ATPlite 1Step luminescence, duplicate 9-point dose response, IC50
U-2 OS = details: Homo sapiens, U2OS; 72 h viability; read-out: SJ3149
Description: (§1) Cell viability assays were performed as previously described. In brief, cells were seeded in a 384-well plate at an optimized density. The starting cell number was determined after 24 h incubation by adding ATPlite 1Step (Perkin Elmer, Groningen, the Netherlands) to each well and recording luminescence on an Envision multimode reader (Perkin Elmer, Waltham, MA). After the addition of a duplicate 9-point dilution series of SJ3149, cells were incubated for another 72 h, followed by cell counting using ATPlite 1Step. The dilution series ranged from 3.2 to 31,600 nM or was diluted 100-fold for the most sensitive cell lines to ideally capture the complete dose–response curve. Percentage viability was determined at each compound concentration by relating the observed signal to a vehicle-treated control, that is, medium containing 0.4% (v/v) DMSO. Compound IC50 values were calculated by fitting a 4-parameter logistic curve to the percentage viability values using IDBS XLfit5 (IDBS, Guildford, UK). The IC50 was limited to the maximum tested compound concentration when the IC50 exceeded the maximum tested concentration. […] To evaluate the compound’s effect and potential therapeutic application across a diverse range of human cancers, we profiled SJ3149 in Oncolines® panel consisting of 115 human cancer cell lines, of which 86 were solid tumor and 29 hematologic cell lines, including MOLM-13. Effect on cell viability was monitored using ATPLite™ (Perkin Elmer), which measures intracellular ATP content as an indirect readout of cell number, like CellTiter Glo.

SW872 = details: Homo sapiens, SW872; 72 h viability; read-out: SJ3149
Description: as §1

HL-60 = details: Homo sapiens, HL-60; 72 h viability; read-out: SJ3149
Description: as §1

PFSK-1 = details: Homo sapiens, PFSK-1; 72 h viability; read-out: SJ3149
Description: as §1

G-361 = details: Homo sapiens, G-361; 72 h viability; read-out: SJ3149
Description: as §1

AP-1060 = details: 72 h viability; read-out: SJ3149
Description: as §1

786-O = details: Homo sapiens, 786-0; 72 h viability; read-out: SJ3149
Description: as §1

ES-2 = details: Homo sapiens, ES-2; 72 h viability; read-out: SJ3149
Description: as §1

SUP-T1 = details: Homo sapiens, SUP-T1; 72 h viability; read-out: SJ3149
Description: as §1

NB4 = details: Homo sapiens, NB-4; 72 h viability; read-out: SJ3149
Description: as §1

PC-3 = details: Homo sapiens, PC-3; 72 h viability; read-out: SJ3149
Description: as §1

A388 = details: 72 h viability; read-out: SJ3149
Description: as §1

HCT-15 = details: Homo sapiens, HCT-15; 72 h viability; read-out: SJ3149
Description: as §1

MG-63 = details: Homo sapiens, MG-63; 72 h viability; read-out: SJ3149
Description: as §1

Hs 746T = details: Homo sapiens, Hs746T; 72 h viability; read-out: SJ3149
Description: as §1

MIA PaCa-2 = details: Homo sapiens, MIA PaCa-2; 72 h viability; read-out: SJ3149
Description: as §1

C-33 A = details: Homo sapiens, C-33-A; 72 h viability; read-out: SJ3149
Description: as §1

U-118 MG = details: Homo sapiens, U-118-MG; 72 h viability; read-out: SJ3149
Description: as §1

DU 145 = details: Homo sapiens, DU-145; 72 h viability; read-out: SJ3149
Description: as §1

PL-21 = details: PL-21; 72 h viability; read-out: SJ3149
Description: as §1

Question: How did the IC50 (U-2 OS) turn out when O=C1CCC(N2Cc3cc(Nc4noc5ccccc45)ccc3C2=O)C(=O)N1 (centres unmarked) [SJ3149] was run?
Answer: The IC50 was > 31.6 µM.

Question: What about the IC50 (SW872) of the same compound?
Answer: The IC50 was > 31.6 µM.

Question: And the IC50 (HL-60)?
Answer: The IC50 was > 31.6 µM.

Question: What about the IC50 (PFSK-1) of the same compound?
Answer: The IC50 was > 31.6 µM.

Question: And the IC50 (G-361)?
Answer: The IC50 was > 31.6 µM.

Question: What about the IC50 (AP-1060) of the same compound?
Answer: The IC50 was 0.00135 µM.

Question: What about the IC50 (786-O) of the same compound?
Answer: The IC50 was > 31.6 µM.

Question: And the IC50 (ES-2)?
Answer: Its IC50 is > 31.6 µM.

Question: What about the IC50 (SUP-T1) of the same compound?
Answer: Its IC50 is > 31.6 µM.

Question: And the IC50 (NB4)?
Answer: The IC50 was > 31.6 µM.

Question: And the IC50 (PC-3)?
Answer: The IC50 was > 31.6 µM.

Question: And the IC50 (A388)?
Answer: Its IC50 is > 31.6 µM.

Question: And the IC50 (HCT-15)?
Answer: Its IC50 is > 31.6 µM.

Question: What about the IC50 (MG-63) of the same compound?
Answer: Its IC50 is > 31.6 µM.

Question: What about the IC50 (Hs 746T) of the same compound?
Answer: The IC50 was > 31.6 µM.

Question: What about the IC50 (MIA PaCa-2) of the same compound?
Answer: The IC50 was > 31.6 µM.

Question: And the IC50 (C-33 A)?
Answer: The IC50 was > 31.6 µM.

Question: And the IC50 (U-118 MG)?
Answer: The IC50 was > 31.6 µM.

Question: What about the IC50 (DU 145) of the same compound?
Answer: The IC50 was > 31.6 µM.

Question: And the IC50 (PL-21)?
Answer: The IC50 was > 31.6 µM.
